Reference: patent US6620798B1, “Synergistic agents for enhancing tissue repair” (priority 2000, dated 2003)

Assay: Pain relief and mobility in patients with musculoskeletal trauma, flavonoid/flavonol versus NSAID
Format: in vivo, human
Method: A preparation containing 2000 mg of quercitin and 20 mg OPC flavonols was given to one group of patients every 6 hours relief of pain. A second group of patients were given 650 mg of […]) every 4 hours.

[1] = Acute knee trauma patellar dislocation

SMILES: Cc1ccc(-c2cc(C(F)(F)F)nn2-c2ccc(S(N)(=O)=O)cc2)cc1 [NSAID]
- mobility [1]: mobility = 10
- pain dec [1]: pain dec = 5
- mobility (Basketball "groin muscle pull"): mobility = 30
- pain dec (Basketball "groin muscle pull"): pain dec = 15
- mobility (Blunt injury to R. shoulder): mobility = 25
- pain dec (Blunt injury to R. shoulder): pain dec = 20
